# Measurements published in patent publication US5789386A, “Fluorine-containing anthracycline derivatives having hydroxyl groups(s) mono- or di-o-aminoalkanoylated in the sugar moiety thereof” (priority 1995, dated 1998).
# How the values were obtained:
# Leukemia L-1210 cells = test: Antitumor test against leukemia L-1210 in CDF1 mice (T/C, %); assay type: in vivo, mouse (CDF1); conditions: for % Increase in life-span (T/C, %): 9 days
# Description: Thus, to evaluate the antitumor effects of the new compounds according to the first aspect of this invention against experimental tumors in animals, CDF1 mice (four mice per group) were intraperitoneally transplanted with cells of Leukemia L-1210 at an amount of 1×10^5 cells/mouse. Since an elapsed time of 24 hours from the transplantation of the leukemia cells, a test compound according to this invention was administered intraperitoneally to the mice under test for 9 consecutive days once per day. […] While, mice of the control group (the untreated group) were administered with only physiological saline after the transplantation of the L-1210 cells. During the observation period, the numbers of the surviving mice in the treated group and in the control group were counted, and the mean survival days of mice in the treated group and in the control group were then calculated. From the mean survival day (C) of the untreated mice of the control group and the mean survival day (T) of the treated mice of the treated group, there were evaluated percentages (%) of the increase in the life-span of the treated mice, as T/C %. For a comparison purpose, 7-O-(2,6-dideoxy-2-fluoro-α-L-talopyranosyl)daunomycinone (abbreviation: FT-DM); 7-O-(2,6-dideoxy-2-fluoro-α-L-talopyranosyl)adriamycinone(abbreviation: FT-ADM); and adriamycin were also tested in the same manner as above. Incidentally, the mean survival day of mice of the control group (the untreated group) was amounting to 8 to 9 days, and the mean survival day of mice of the comparative groups having received the administration of adriamycin was varying dependently on the dosage of adriamycin.
# Notes; Asterisks (*) indicate that development of toxicity such as
# toxicityrelated death or a body weight loss was observed on the
# corresponding mice tested.
# [1] = test system: mouse leukemia, P388 cells; test: In vitro growth inhibition of P388 cells, 72 hours; assay type: cell-based; conditions: P388, 72 h
# [2] = test system: adriamycin-resistant P388 cells (P388/ADR); test: In vitro growth inhibition of adriamycin-resistant P388 cells (P388/ADR), 72 hours; assay type: cell-based; conditions: Mus musculus, 72 h
# [3] = clinical use, many instances; cited from earlier work
# experimental tumors = conditions: test animals; background, earlier applications; cited from earlier work
# [4] = low dosages which give high antitumor effects; test animals; cited from earlier work
Structure (SMILES),"% Increase in life-span (T/C, %) (Leukemia L-1210 cells; 0.15 mg/kg/day i.p.)","% Increase in life-span (T/C, %) (Leukemia L-1210 cells; 0.3 mg/kg/day i.p., "">"" = at least one of four mice survived 60 days or longer)","% Increase in life-span (T/C, %) (Leukemia L-1210 cells; 0.6 mg/kg/day i.p., "">"" = at least one of four mice survived 60 days or longer)","% Increase in life-span (T/C, %) (Leukemia L-1210 cells; 1.25 mg/kg/day i.p., "">"" = at least one of four mice survived 60 days or longer)","% Increase in life-span (T/C, %) (Leukemia L-1210 cells; 2.5 mg/kg/day i.p., "">"" = at least one of four mice survived 60 days or longer)","percentage (%) of increase in life-span (T/C, %) at maximum (Leukemia L-1210 cells; 2.5 mg/kg/day to 5 mg/kg/day, L-1210 mice)","% Increase in life-span (T/C, %) (Leukemia L-1210 cells; 5 mg/kg/day i.p., "">"" = at least one of four mice survived 60 days or longer)","development of toxicity (in words) (Leukemia L-1210 cells; daunomycin, adriamycin 2.5 mg/kg/day to 5 mg/kg/day, L-1210 mice)",IC50 [1],IC50 [2],serious side-effects (in words) [3],anticancer or antitumor activity (in words) (experimental tumors),development of acute toxicity (in words) [4]
"COc1cccc2c1C(=O)c1c(O)c3c(c(O)c1C2=O)C[C@@](O)(C(=O)CO)C[C@@H]3O[C@H]1C[C@H](N)[C@H](O)[C@H](C)O1 [Adriamycin, adriamycin, reference compound]",140%,132%,208%,330%,273%,approximately 330%,177%,being accompanied by development of toxicity,0.033 µg/mL,1.3 µg/mL,"serious side-effects such as leukocytopenia, alopecia, myocardiopathy and others",–,–
"COc1cccc2c1C(=O)c1c(O)c3c(c(O)c1C2=O)C[C@@](O)(C(=O)CO)C[C@@H]3O[C@H]1C[C@H](O)[C@H](O)[C@H](C(F)(F)F)O1 [formula (D), 7-O-(2,6-dideoxy-6,6,6-trifluoro-α-L-lyxo-hexopyranosyl)adriamycinone]",–,–,–,–,–,–,–,–,–,–,–,high anticancer or antitumor activity,development of acute toxicity does not take place
